According to PubChem BioAssay AID1241 (SRMLSC, 2008):

experiment: compounds inducing NF-kB luciferase expression – cell-based, SH-SY5Y, dose response (AID 1241); conditions: SH-SY5Y NF-kB promoter luciferase reporter, fold induction

Row | Structure (SMILES) | EC50
1 | COc1cc(/C=N/O)ccc1OCc1ccccc1Cl | 12100 nM
2 | COc1ccc2c(c1)CC/C2=N\OC(=O)c1ccccc1C | 1970 nM
3 | C=CCSc1nnc(-c2ccc(Cl)cc2Cl)o1 | 4370 nM
4 | O=C(Nc1ccc2c(c1)OCCO2)c1ccc(Br)s1 | 609 nM
5 | Cc1nn(-c2ccccc2)c(Cl)c1/C=N/Nc1ccc(Cl)c(C(=O)O)c1 | 11300 nM
6 | O=C(CCc1ccccc1)Nc1ccc2ccccc2n1 | 16200 nM
7 | CCN(CC)c1ccc(N=Nc2nn(C)c(C)c2[N+](=O)[O-])cc1 | 8190 nM
8 | Cc1nnc(SCc2cnc(-c3ccc(C(C)C)cc3)s2)n1C | 4570 nM
9 | COC(=O)c1cccc(NC(=O)c2onc3c2CCCC3)c1 | 2040 nM
10 | O=C(c1cccs1)c1ccc(-c2cccs2)s1 | 623 nM
11 | O=C(Nc1ccc(Cl)cc1Cl)C1=Cc2ccccc2OC1 | 8040 nM
12 | Fc1ccc(-c2nc3n(n2)Cc2ccccc2-3)cc1 | 125 nM
13 | Oc1ccc(-c2cn3cc(C(F)(F)F)ccc3n2)cc1 | 1190 nM
14 | Cc1ccccc1Nc1nc(N)c2ccccc2n1 | 1990 nM
15 | COc1ccc(/C=C/c2nc(-c3ccccc3O)n[nH]2)cc1 | 2920 nM
16 | CCn1cnc2cc(NCc3nc4ccccc4n3C)ccc21 | 1420 nM
17 | O=C(Nc1ncc(Cc2ccccc2)s1)c1cccs1 | 1080 nM
18 | Cc1ccccc1Nc1nnc(SCC2CCCCO2)s1 (centres undefined) | 5760 nM
19 | CCOC(=O)c1sc2nc3c(cc2c1N)COC(C)(CC)C3 (centres undefined) | 1450 nM
20 | O=C(NCCCn1ccnc1)c1cc(-c2cccs2)on1 | 24100 nM
21 | c1ccc(Nc2nc(-c3cccs3)cs2)nc1 | 667 nM
22 | CN(C)S(=O)(=O)Oc1cccc(C(=O)Nc2ccc(Cl)cc2)c1 | 8780 nM
23 | CCc1sc(C(=O)N2CCc3ccccc32)cc1C | 1690 nM
24 | Cc1ccc(/C=N/Nc2ccc(Cl)c(C(=O)O)c2)s1 | 12800 nM
25 | CCOc1ccc(/C=N/Nc2ccccn2)cc1 | 1010 nM
26 | Cc1ccc(-c2nc3ccccc3[nH]2)s1 | 6090 nM
27 | O=C(Nc1ccc(N2CCCC2)c(Cl)c1)c1ccco1 | 1680 nM

Row | Structure (SMILES) | EC50
28 | CC(C)(C)c1ccc(C(=O)Nc2cccc([N+](=O)[O-])c2)cc1 | 15800 nM
29 | Cc1cnc(C(=O)Nc2ccc3c(c2)CCC3)cn1 | 2450 nM
30 | CC(=O)Nc1cccc(-c2csc(Nc3cccc(C)n3)n2)c1 | 1630 nM
31 | Cc1ccc(-c2cnc3c(Cl)c(C)nn3c2)cc1 | 11500 nM
32 | O=C(Nc1ccon1)c1cc2c(s1)CCCC2 | 4130 nM
33 | O=C(Nc1ccccn1)c1sc2cccc(F)c2c1Cl | 1760 nM
34 | Cc1occc1C(=O)N/N=C/C(Br)=C/c1ccccc1 | 1640 nM
35 | CC(C)(C)C(=O)Nc1nc(-c2ccc3c(c2)OCO3)cs1 | 2660 nM
36 | c1ccc(-c2noc(-c3cccc4ccccc34)n2)cc1 | 15600 nM
37 | O=C(Cc1cccs1)Nc1nc2c(s1)CCCC2 | 20200 nM
38 | O=C(COc1ccc2ccccc2c1)Nc1nccs1 | 776 nM
39 | COc1ccc(-c2cc(=O)c3ccccc3s2)cc1 | 2060 nM
40 | Cc1ccc(-c2cc(-c3ccccc3Cl)[nH]n2)c(O)c1 | 7150 nM
41 | COc1cc(/C=N/Nc2nc3ccccc3s2)ccc1OC(=O)c1ccccc1F | 1420 nM
42 | Cc1ccc2nc(NC(=S)NC(=O)c3cccs3)sc2c1 | 2230 nM
43 | CNC(=O)Oc1cccc(-c2cn3cc(Cl)ccc3n2)c1 | 1260 nM
44 | COc1cccc(/C=C/C(=O)c2ccc[nH]2)c1 | 14900 nM
45 | Cc1ccsc1C(=O)OCc1csc(-c2ccccc2)n1 | 1540 nM
46 | CCCCNc1ncnc2c1cnn2-c1ccccc1 | 6070 nM
47 | Cc1ccc(C(=O)Nc2nnc(SCC(=O)N3CCCc4ccccc43)s2)cc1 | 1660 nM
48 | Cc1cc(C)c2nc(NC(=O)C3CCCO3)sc2c1 (centres undefined) | 18600 nM
49 | Cc1ccsc1/C=N/Nc1cccc(C(=O)O)c1 | 1050 nM
50 | Cc1ccc(C(=O)COC(=O)c2cccs2)cc1 | 2450 nM
51 | Cc1cc(C)cc(NC(=O)c2ccc([N+](=O)[O-])o2)c1 | 4240 nM
52 | CCOc1ccc(NC(=O)c2ccco2)c([N+](=O)[O-])c1 | 18900 nM
53 | Nc1ccc2nc(SCc3cccc(F)c3)sc2c1 | 3680 nM
54 | COc1ccc(Nc2nc3ccccc3s2)cc1 | 20400 nM
